The NIST ThermoML archive (doi:10.1016/j.jct.2008.09.002)

What was measured:
[1] = molar heat capacity at constant pressure; xn = mol fraction of the nth substance listed; conditions: 101.3 kPa, Liquid, Small sample (50 mg) DSC
[2] = excess molar enthalpy (molar enthalpy of mixing); xn = mol fraction of the nth substance listed; conditions: 303.15 K, 101.3 kPa, Liquid, Calvet calorimetry
[3] = xn = mol fraction of the nth substance listed; conditions: 101.3 kPa, Liquid, Vibrating tube method

C[N+](=O)[O-] [nitromethane] + CCCCn1cc[n+](C)c1.O=S(=O)([O-])C(F)(F)F
Conditions	mass density, [3] [kg/m3]	molar heat capacity at constant pressure, [1] [J/K/mol]
293.15 K, x2 = 0.0495	1173.6	121.1
293.15 K, x2 = 0.0972	1196.4	136
293.15 K, x2 = 0.2021	1229.9	168.8
293.15 K, x2 = 0.2955	1249.1	198.5
293.15 K, x2 = 0.4015	1264.3	231.5
293.15 K, x2 = 0.495	1274.2	261.4
293.15 K, x2 = 0.5993	1282.6	294.6
293.15 K, x2 = 0.6939	1288.6	324.4
293.15 K, x2 = 0.7858	1293.3	353.8
293.15 K, x2 = 0.8697	1296.9	380.5
293.15 K, x2 = 0.9286	1299.1	398.8
298.15 K, x2 = 0.0495	1167.4	121.4
298.15 K, x2 = 0.0972	1190.6	136.4
298.15 K, x2 = 0.2021	1224.7	169.4
298.15 K, x2 = 0.2955	1244.2	199.4
298.15 K, x2 = 0.4015	1259.7	232.6
298.15 K, x2 = 0.495	1269.7	262.6
298.15 K, x2 = 0.5993	1278.2	296.1
298.15 K, x2 = 0.6939	1284.3	326.1
298.15 K, x2 = 0.7858	1289.1	355.6
298.15 K, x2 = 0.8697	1292.8	382.7
298.15 K, x2 = 0.9286	1295.1	400.9
303.15 K, x2 = 0.0495	1161.2	121.8
303.15 K, x2 = 0.0972	1184.8	137
303.15 K, x2 = 0.2021	1219.4	170.1
303.15 K, x2 = 0.2955	1239.3	200.3
303.15 K, x2 = 0.4015	1255	233.9
303.15 K, x2 = 0.495	1265.2	263.9
303.15 K, x2 = 0.5993	1273.9	297.8
303.15 K, x2 = 0.6939	1280.1	327.9
303.15 K, x2 = 0.7858	1285	357.5
303.15 K, x2 = 0.8697	1288.8	385
303.15 K, x2 = 0.9286	1291.1	403.3
308.15 K, x2 = 0.0495	1154.9	122.3
308.15 K, x2 = 0.0972	1178.9	137.5
308.15 K, x2 = 0.2021	1214.2	170.9
308.15 K, x2 = 0.2955	1234.3	201.4
308.15 K, x2 = 0.4015	1250.3	235.2
308.15 K, x2 = 0.495	1260.7	265.3
308.15 K, x2 = 0.5993	1269.6	299.5
308.15 K, x2 = 0.6939	1275.9	329.8
308.15 K, x2 = 0.7858	1280.9	359.6
308.15 K, x2 = 0.8697	1284.7	387.4
308.15 K, x2 = 0.9286	1287.1	405.7
313.15 K, x2 = 0.0495	1148.8	122.8
313.15 K, x2 = 0.0972	1173.2	138.2
313.15 K, x2 = 0.2021	1209	171.7
313.15 K, x2 = 0.2955	1229.5	202.5
313.15 K, x2 = 0.4015	1245.7	236.6
313.15 K, x2 = 0.495	1256.3	266.8
313.15 K, x2 = 0.5993	1265.3	301.3
313.15 K, x2 = 0.6939	1271.7	331.8
313.15 K, x2 = 0.7858	1276.8	361.8
313.15 K, x2 = 0.8697	1280.7	389.9
313.15 K, x2 = 0.9286	1283.1	408.3
318.15 K, x2 = 0.0495	1142.5	123.3
318.15 K, x2 = 0.0972	1167.4	138.7
318.15 K, x2 = 0.2021	1203.7	172.5
318.15 K, x2 = 0.2955	1224.6	203.6
318.15 K, x2 = 0.4015	1241.1	238
318.15 K, x2 = 0.495	1251.8	268.3
318.15 K, x2 = 0.5993	1261	303.2
318.15 K, x2 = 0.6939	1267.5	334
318.15 K, x2 = 0.7858	1272.7	364.1
318.15 K, x2 = 0.8697	1276.7	392.6
318.15 K, x2 = 0.9286	1279.1	411.1

[2]
Conditions	excess molar enthalpy [kcal/mol]
x2 = 0.1022	0.00932
x2 = 0.1994	0.0136
x2 = 0.3029	0.0148
x2 = 0.4044	0.0141
x2 = 0.5067	0.0134
x2 = 0.5931	0.0108
x2 = 0.703	0.00741
x2 = 0.7814	0.0012
x2 = 0.8933	-0.00215
